Seven molecules from US6677355B1, “Hydroxamic acid compounds useful as matrix metalloproteinase inhibitors” (Warner-Lambert Company, priority 1999, dated 2004) can be followed below.

The target in data set [1] is MMP-9FL (gelatinase B full-length enzyme) (Homo sapiens, UniProt P14780). The data set can be described thus: MMP-9FL inhibition, thiopeptolide substrate hydrolysis. Type of data set: biochemical. The following applies: average where multiple samples assayed. As to the method:
(§1) The compounds were evaluated in order to determine their respective IC50 values, i.e., the micromolar concentration of compound required to achieve a 50% inhibition of the hydrolytic activity of the respective enzymes.
(§2) Experiments were carried out with the full-length (“FL”) and/or catalytic domains (“CD”) of the proteinases. […] IC50 values were determined using a thiopeptolide substrate, Ac-Pro-Leu-Gly-thioester-Leu-Leu-Gly-OEt (Ye Q.-Z., Johnson L. L., Hupe D. J., and Baragi V., “Purification and Characterization of the Human Stromelysin Catalytic Domain Expressed in Escherichia coli,” Biochemistry, 1992;31:11231-11235; Ye Q.-Z., Johnson L. L., Yu A. E., and Hupe D., “Reconstructed 19 kDa Catalytic Domain of Gelatinase A IAAP,” Biochemistry, 1995;34:4702-4708.)
(§3) The tested MMPs are available to those skilled in the art. For example, MMP-1 can be obtained from Washington University School of Medicine, St. Louis, Mo. MMP-7 can be obtained in accordance with the known procedure set forth by Ye Q. Z., Johnson L. L., and Baragi V., “Gene Syntheses and Expression in E. coli for PUMP, a Human Matrix Metalloproteinase,” Biochem. and Biophys. Res. Comm., 1992;186:143-149. MMP-13 can be obtained in accordance with the known procedure set forth by Freije J. M. P. et al., “Molecular Cloning and Expression of Collagenase-3, a Novel Human Matrix Metalloproteinase Produced by Breast Carcinomas,” J. Bio. Chem., 1994;269:16766-16773. MMP-13CD can also be expressed from a synthetic gene and purified from Escherichia coli cell culture according to a previously described method (Ye Q.-Z., Johnson L. L., and Baragi V., “Gene Synthesis and Expression in E. coli for PUMP, a Human Matrix Metalloproteinase,” Biochemical and Biophysical Research Communications, 1992;186:143-149). Hydrolysis of the thiopeptolide substrate Ac-Pro-Leu-Gly-thioester-Leu-Leu-Gly-OEt (Bachem) was used as the primary screen to determine IC50 values for MMP inhibitors. A 100 μL reaction contains 1 mM 5,5′-dithiobis(2-nitrobenzoic acid) (DTNB), 100 μM substrate, 0.1% BRIJ® 35, PROTEIN GRADE®, Detergent, 10% solution, Sigma, St. Louis, Mo. [polyoxyethyleneglycol dodecyl ether; polyoxyethylene (23) lauryl ether], enzyme, and inhibitor in the appropriate reaction buffer. Activated full-length enzymes are assayed at 5 nM, Stromelysin Catalytic Domain (SCD) at 10 nM, and Gelatinase A Catalytic Domain (GaCD) at 1 nM. Inhibitors are screened from 100 μM to 1 nM. Full-length enzymes (e.g., MMP-1 and MMP-7) are assayed in 50 mM 4-(2-[…])-piperazine-1-ethane sulfonic acid (HEPES), 10 mM CaCl2, pH 7.0; SCD in 50 mM 2-morpholinoethane sulfonic acid monohydrate (MES), 10 mM CaCl2, pH 6.0; and GaCD in 50 mM 3-morpholtriopropane sulfonic acid (MOPS), 10 mM CaCl2, 10 μM ZnCl2, pH 7.0. The change in absorbance at 405 nanometers is monitored on a ThermoMax microplate reader at room temperature continuously for 20 minutes.
(§4) The number in parenthesis indicates the number of samples assayed.

The target in data set [2] is T1, MMP-3CD (stromelysin-1 catalytic domain) (Homo sapiens, UniProt P08254).
T1 construct: MMP-3CD (stromelysin-1 catalytic domain); made in house; host or cells: Escherichia coli
The data set can be described thus: MMP-3CD inhibition, thiopeptolide substrate hydrolysis. Type of data set: biochemical. The following applies: average where multiple samples assayed. As to the method: as §1, §2, §3, §4

In data set [3] the target is MMP-2CD (gelatinase A catalytic domain) (Homo sapiens, UniProt P08253). As to the kind of experiment: MMP-2CD inhibition, thiopeptolide substrate hydrolysis. The format is biochemical. To be noted: average where multiple samples assayed. The procedure: as §1, §2, §3, §4
In data set [4] the target is T2, MMP-1FL (collagenase-1 full-length enzyme) (Homo sapiens, UniProt P03956).
T2 construct: purchased Washington University School of Medicine, St. Louis, Mo
T2 sequence (P03956 100-469): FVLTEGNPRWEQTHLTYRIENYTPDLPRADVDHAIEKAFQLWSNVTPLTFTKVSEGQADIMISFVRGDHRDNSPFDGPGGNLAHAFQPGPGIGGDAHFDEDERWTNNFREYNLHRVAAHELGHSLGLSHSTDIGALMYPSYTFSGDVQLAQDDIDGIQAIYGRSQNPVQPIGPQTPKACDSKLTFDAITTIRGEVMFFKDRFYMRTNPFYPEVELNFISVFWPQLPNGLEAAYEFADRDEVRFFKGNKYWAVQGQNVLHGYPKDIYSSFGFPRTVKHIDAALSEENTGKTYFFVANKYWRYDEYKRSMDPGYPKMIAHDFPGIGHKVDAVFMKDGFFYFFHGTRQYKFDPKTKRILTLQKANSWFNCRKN
The data set can be described thus: MMP-1FL inhibition, thiopeptolide substrate hydrolysis. Type of data set: biochemical. To be noted: average where multiple samples assayed. The procedure:
as §1, §2, §3, §4

The target in data set [5] is T3, MMP-13CD (collagenase-3 catalytic domain) (Homo sapiens, UniProt P45452).
T3 construct: MMP-13CD (collagenase-3 catalytic domain); made in house; host or cells: Escherichia coli
As to the kind of experiment: MMP-13CD inhibition, thiopeptolide substrate hydrolysis. The following applies: average where multiple samples assayed. The format is biochemical. As to the method: as §1, §2, §3, §4

The target in data set [6] is T4, MMP-7FL (matrilysin full-length enzyme) (Homo sapiens, UniProt P09237).
T4 construct: made in house; host or cells: E. coli
T4 sequence (P09237 95-267): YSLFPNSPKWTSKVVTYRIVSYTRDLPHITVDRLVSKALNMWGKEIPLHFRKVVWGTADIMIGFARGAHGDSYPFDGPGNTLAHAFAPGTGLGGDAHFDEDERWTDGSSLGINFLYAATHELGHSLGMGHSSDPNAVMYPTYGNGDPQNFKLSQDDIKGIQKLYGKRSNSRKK
The data set can be described thus: MMP-7FL inhibition, thiopeptolide substrate hydrolysis. To be noted: average where multiple samples assayed. The format is biochemical. The procedure:
as §1, §2, §3, §4

The target of data set [7] is T5, MMP-14CD (membrane-type MMP-1 catalytic domain) (Homo sapiens, UniProt P50281).
T5 construct: MMP-14CD (membrane-type MMP-1 catalytic domain)
The data set can be described thus: MMP-14CD inhibition, thiopeptolide substrate hydrolysis. Type of data set: biochemical. The following applies: average where multiple samples assayed. As to the method:
as §1, §2, §3, §4

For data set [8], the target named is T6, MMP-2FL (gelatinase A full-length enzyme) (Homo sapiens, UniProt P08253).
T6 sequence (P08253 110-660): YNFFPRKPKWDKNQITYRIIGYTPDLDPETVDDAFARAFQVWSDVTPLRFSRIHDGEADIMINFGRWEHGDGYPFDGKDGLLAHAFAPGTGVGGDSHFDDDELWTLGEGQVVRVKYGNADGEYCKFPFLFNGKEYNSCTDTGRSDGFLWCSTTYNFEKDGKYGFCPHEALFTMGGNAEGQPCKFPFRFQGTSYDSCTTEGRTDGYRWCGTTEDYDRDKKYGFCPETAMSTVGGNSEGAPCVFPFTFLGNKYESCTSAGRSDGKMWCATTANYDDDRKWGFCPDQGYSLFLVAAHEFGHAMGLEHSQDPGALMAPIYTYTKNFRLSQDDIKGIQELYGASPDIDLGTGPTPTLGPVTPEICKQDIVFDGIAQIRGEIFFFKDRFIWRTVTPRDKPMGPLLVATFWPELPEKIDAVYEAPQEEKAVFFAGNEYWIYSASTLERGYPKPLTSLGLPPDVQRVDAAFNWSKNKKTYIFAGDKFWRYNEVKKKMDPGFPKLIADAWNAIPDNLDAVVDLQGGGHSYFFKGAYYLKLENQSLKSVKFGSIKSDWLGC
As to the kind of experiment: MMP-2FL inhibition, thiopeptolide substrate hydrolysis. The format is biochemical. To be noted: average where multiple samples assayed. As to the method:
as §1, §2, §3, §4

Structures are written as SMILES.

T1 sequence (P08254 100-272 limits assumed): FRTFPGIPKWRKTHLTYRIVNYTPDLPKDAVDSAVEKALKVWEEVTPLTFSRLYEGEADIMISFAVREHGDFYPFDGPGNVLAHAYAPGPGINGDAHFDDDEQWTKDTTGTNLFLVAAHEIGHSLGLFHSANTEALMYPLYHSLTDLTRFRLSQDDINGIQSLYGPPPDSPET
Chain of MMP-9FL (gelatinase B full-length enzyme) (P14780 107-707 limits assumed, species assumed): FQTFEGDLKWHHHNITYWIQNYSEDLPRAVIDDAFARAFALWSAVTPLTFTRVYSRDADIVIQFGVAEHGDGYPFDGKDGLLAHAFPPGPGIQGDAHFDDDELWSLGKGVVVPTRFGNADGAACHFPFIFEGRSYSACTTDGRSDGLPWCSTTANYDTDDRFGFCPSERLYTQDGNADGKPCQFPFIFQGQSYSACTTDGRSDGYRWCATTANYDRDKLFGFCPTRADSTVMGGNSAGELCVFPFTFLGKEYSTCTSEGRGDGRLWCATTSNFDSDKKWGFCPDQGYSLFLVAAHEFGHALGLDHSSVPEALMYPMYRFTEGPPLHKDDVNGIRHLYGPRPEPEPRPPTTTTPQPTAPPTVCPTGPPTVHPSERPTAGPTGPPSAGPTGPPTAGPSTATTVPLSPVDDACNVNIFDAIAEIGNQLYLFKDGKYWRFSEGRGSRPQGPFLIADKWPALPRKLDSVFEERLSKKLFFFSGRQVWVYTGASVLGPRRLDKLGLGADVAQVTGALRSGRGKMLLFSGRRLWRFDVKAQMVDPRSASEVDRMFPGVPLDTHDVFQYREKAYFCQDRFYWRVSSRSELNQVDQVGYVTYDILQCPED
Chain of MMP-2CD (gelatinase A catalytic domain) (P08253 with tags, fused parts or gaps DEL220-393): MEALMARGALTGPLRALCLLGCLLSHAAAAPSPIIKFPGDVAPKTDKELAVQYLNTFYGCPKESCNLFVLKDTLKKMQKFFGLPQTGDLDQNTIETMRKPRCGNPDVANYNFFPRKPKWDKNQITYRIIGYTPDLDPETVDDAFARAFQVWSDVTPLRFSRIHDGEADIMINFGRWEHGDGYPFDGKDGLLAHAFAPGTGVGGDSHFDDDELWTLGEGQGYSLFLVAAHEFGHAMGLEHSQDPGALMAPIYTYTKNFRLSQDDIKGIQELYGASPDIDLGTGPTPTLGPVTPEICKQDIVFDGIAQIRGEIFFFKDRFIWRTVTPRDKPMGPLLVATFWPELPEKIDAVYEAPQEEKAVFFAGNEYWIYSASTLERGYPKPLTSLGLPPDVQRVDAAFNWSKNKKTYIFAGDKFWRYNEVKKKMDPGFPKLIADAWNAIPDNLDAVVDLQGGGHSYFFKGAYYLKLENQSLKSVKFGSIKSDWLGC

In the case of `O=C(NO)C1(NS(=O)(=O)c2ccc3c(c2)oc2ccccc23)CCOCC1` [Example 31, 4-(Dibenzofuran-3-sulfonylamino)-tetrahydro-pyran-4-carboxylic acid hydroxyamide], the melting point (as a rule, the temperature, or range, at which the solid turns liquid) lay in the range of 160 to 162 °C. Further, half-maximal inhibition in data set [1] (IC50) was put at 250 nM. Further, it took 14.7 nM to reach half-maximal inhibition in [2] (IC50). In addition, in [3], the IC50 (in general, the point on the concentration scale where inhibition reaches its midpoint) came out at 2.3 nM. In data set [4], the half-inhibitory concentration (IC50) was determined as 380 nM. This molecule also displayed an IC50 in data set [5] of 48 nM. In data set [6], the IC50 amounted to 3000 nM. In data set [7], this molecule gave a half-inhibitory concentration (IC50) of 5.75 nM. This molecule also registered an IC50 in [8] of 5.25 nM.
For the molecule `O=C(NO)C1(NS(=O)(=O)c2ccc3c(c2)oc2ccccc23)CCCCC1` [Example 28, 1-(Dibenzofuran-3-sulfonylamino)-cyclohexanecarboxylic acid hydroxyamide], the melting point fell in the range of 184 to 186 °C. Moreover, inhibition in data set [1] was half-maximal at 135 nM (IC50). Half-maximal inhibition in [2] (IC50) was put at 15.5 nM. The molecule also showed a half-inhibitory concentration (IC50) in [3] of 1.7 nM. The molecule further registered an IC50 in data set [4] of 295 nM. The 50% inhibitory concentration (IC50) in data set [5] amounted to 49 nM. Moreover, the IC50 in data set [6] worked out at 4050 nM. The molecule further showed an IC50 in [7] of 3.9 nM. Further, the IC50 in data set [8] was 4.5 nM.
On to `O=C(NO)C1(NS(=O)(=O)c2ccc3oc4cc(Br)ccc4c3c2)CCCC1` [Example 32, 1-(7-Bromo-dibenzofuran-2-sulfonylamino)-cyclopentane carboxylic acid hydroxamide], for which the IC50 in [1] was 13000 nM; in data set [2], 35 nM; in data set [3], 82.7 nM; in data set [4], 5750 nM; in data set [5], 165 nM; in [6], 350 nM. In addition, the IC50 came to 340 nM in [7] and 205 nM in [8].
In turn, `CC(C)(NS(=O)(=O)c1ccc2c(c1)oc1ccccc12)C(=O)O` [Example 29, 2-(Dibenzofuran-3-sulfonylamino)-2-methyl-propionic acid] displayed a melting point of 220 to 224 °C. Also, the half-inhibitory concentration (IC50) in [1] worked out at 11500 nM. The same molecule returned a half-inhibitory concentration (IC50) in [2] of 8.35 nM. The molecule further yielded an IC50 in data set [3] of 2.65 nM. Moreover, in data set [4], the IC50 came out at 8250 nM. In data set [5], this molecule had a 50% inhibitory concentration (IC50) of 450 nM. Further, the IC50 in data set [6] is 34000 nM. The molecule further showed an IC50 in data set [7] of 22.5 nM. Also, inhibition in data set [8] was half-maximal at 19.8 nM (IC50).
As for `O=C(O)C1(NS(=O)(=O)c2ccc3c(c2)oc2ccccc23)CCCCC1` [Example 27, 1-(Dibenzofuran-3-sulfonylamino)-cyclohexanecarboxylic acid], the melting point was in the range of 239 to 243 °C. The molecule further had an IC50 in [1] of 3700 nM. In data set [2], the IC50 worked out at 9.25 nM. In [3], this molecule displayed an IC50 of 2.7 nM. It took 1750 nM to reach half-maximal inhibition in data set [4] (IC50). In addition, the half-maximal inhibitory concentration (IC50) in data set [5] came out at 230 nM. Besides, the IC50 in data set [6] is 4250 nM. Moreover, the IC50 in data set [7] stood at 26.5 nM. Further, the half-maximal inhibitory concentration (IC50) in [8] came to 23 nM.
As for `CC(C)(NS(=O)(=O)c1ccc2oc3cc(Cl)ccc3c2c1)C(=O)NO` [Example 33, 2-(7-Chloro-dibenzofuran-2 sulfonylamino)-N-hydroxy-2-methyl-propionamide], the half-inhibitory concentration (IC50) in data set [1] turned out to be 15000 nM; in data set [2], 43 nM; in [3], 81 nM; in [4], 3050 nM; in data set [5], 110 nM; in data set [6], 920 nM. Also, the IC50 worked out at 300 nM in data set [7] and 125 nM in data set [8].
As to `CC(C)(NS(=O)(=O)c1ccc2c(c1)oc1ccccc12)C(=O)NO` [Example 30, 2-(Dibenzofuran-3-sulfonylamino)-N-hydroxy-2-methyl-propionamide], the melting point was 168 to 169 °C. Also, in data set [1], the half-maximal inhibitory concentration (IC50) turned out to be 860 nM. Besides, the half-maximal inhibitory concentration (IC50) in data set [2] stood at 83.5 nM. Half-maximal inhibition in data set [3] (IC50) required 4.3 nM. The molecule also came in with a 50% inhibitory concentration (IC50) in data set [4] of 905 nM. Also, 105 nM corresponded to half-maximal inhibition in [5] (IC50). Also, it took 100000 nM to reach half-maximal inhibition in [6] (IC50). This molecule gave an IC50 in [7] of 13.5 nM. In [8], the IC50 was determined as 4.75 nM.
